Laboratory results: PubChem BioAssay (NCI)
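Each compound was tested at five concentrations against cells in 96-well plates for 48 hours. TGI: concentration producing complete growth inhibition.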

How the values were obtained:
Assay in all cases: NCI tumour cell line growth inhibition, 48 h
[1] = tested on: A498 renal
[2] = tested on: CCRF-CEM leukemia
[3] = tested on: HL-60(TB) leukemia
[4] = tested on: HOP-18 NSCLC
[5] = tested on: K-562 leukemia
[6] = tested on: MOLT-4 leukemia
[7] = tested on: OVCAR-5 ovarian
[8] = tested on: OVCAR-8 ovarian
[9] = tested on: RPMI-8226 leukemia
[10] = tested on: SF-539 CNS
[11] = tested on: SN12C renal
[12] = tested on: SNB-19 CNS
[13] = tested on: UO-31 renal
[14] = tested on: 786-0 renal
[15] = tested on: A549 NSCLC
[16] = tested on: ACHN renal
[17] = tested on: CAKI-1 renal
[18] = tested on: COLO 205 colon
[19] = tested on: DLD-1 colon
[20] = tested on: DMS 114 small cell lung
[21] = tested on: DMS 273 small cell lung
[22] = tested on: EKVX NSCLC
[23] = tested on: HCC-2998 colon
[24] = tested on: HCT-116 colon
[25] = tested on: HCT-15 colon
[26] = tested on: HOP-62 NSCLC
[27] = tested on: HOP-92 NSCLC
[28] = tested on: HT29 colon
[29] = tested on: IGROV1 ovarian
[30] = tested on: KM12 colon
[31] = tested on: KM20L2 colon
[32] = tested on: LOX IMVI melanoma
[33] = tested on: LXFL 529 NSCLC
[34] = tested on: M14 melanoma
[35] = tested on: M19-MEL melanoma
[36] = tested on: MALME-3M melanoma
[37] = tested on: NCI-H226 lung
[38] = tested on: NCI-H23 lung
[39] = tested on: NCI-H460 lung
[40] = tested on: NCI-H522 lung
[41] = tested on: OVCAR-3 ovarian
[42] = tested on: OVCAR-4 ovarian
[43] = tested on: RXF 393 renal
[44] = tested on: SF-268 CNS
[45] = tested on: SF-295 CNS
[46] = tested on: SK-MEL-2 melanoma
[47] = tested on: SK-MEL-28 melanoma
[48] = tested on: SK-MEL-5 melanoma
[49] = tested on: SK-OV-3 ovarian
[50] = tested on: SNB-75 CNS
[51] = tested on: SNB-78 CNS
[52] = tested on: SR leukemia
[53] = tested on: SW-620 colon
[54] = tested on: TK-10 renal
[55] = tested on: U251 CNS
[56] = tested on: UACC-257 melanoma
[57] = tested on: UACC-62 melanoma
[58] = tested on: XF 498 CNS
[59] = tested on: BT-549 breast
[60] = tested on: DU-145 prostate
[61] = tested on: HS 578T breast
[62] = tested on: MCF7 breast
[63] = tested on: MDA-MB-231 breast
[64] = tested on: MDA-MB-435
[65] = tested on: MDA-N
[66] = tested on: NCI/ADR-RES ovarian
[67] = tested on: PC-3 prostate
[68] = tested on: T-47D breast

## Cc1c2cc[n+](COC(=O)c3ccccc3)cc2c(C)c2c1[nH]c1ccccc12
[1]
  TGI: 2.48 µM
[2]
  TGI: 2.91 µM
[3]
  TGI: 2.72 µM
[4]
  TGI: 1.93 µM
[5]
  TGI: 1.52 µM
[6]
  TGI: 1.59 µM
[7]
  TGI: 2.39 µM
[8]
  TGI: 2.11 µM
[9]
  TGI: 2.92 µM
[10]
  TGI: 1.48 µM
[11]
  TGI: 1.79 µM
[12]
  TGI: 52.6 µM
[13]
  TGI: 4.82 µM

## CCCOc1ccc(/C(Cl)=C(\C=O)c2ccc(OC)c(OC)c2)cc1OCCC
[14]
  TGI: > 100 µM
[1]
  TGI: 38.5 µM
[15]
  TGI: > 100 µM
[16]
  TGI: > 100 µM
[17]
  TGI: > 100 µM
[2]
  TGI: > 100 µM
[18]
  TGI: 14.6 µM
[19]
  TGI: > 100 µM
[20]
  TGI: 25.3 µM
[21]
  TGI: 40.1 µM
[22]
  TGI: 50.4 µM
[23]
  TGI: 15.4 µM
[24]
  TGI: 10.8 µM
[25]
  TGI: 32.8 µM
[3]
  TGI: 20.9 µM
[4]
  TGI: > 100 µM
[26]
  TGI: > 100 µM
[27]
  TGI: 51.2 µM
[28]
  TGI: 18.5 µM
[29]
  TGI: > 100 µM
[5]
  TGI: > 100 µM
[30]
  TGI: 34.5 µM
[31]
  TGI: > 100 µM
[32]
  TGI: 25.8 µM
[33]
  TGI: 80.9 µM
[34]
  TGI: > 100 µM
[35]
  TGI: 31.1 µM
[36]
  TGI: 38.8 µM
[6]
  TGI: > 100 µM
[37]
  TGI: 32.4 µM
[38]
  TGI: 21.6 µM
[39]
  TGI: 28.7 µM
[40]
  TGI: 6.12 µM
[41]
  TGI: > 100 µM
[42]
  TGI: > 100 µM
[7]
  TGI: > 100 µM
[8]
  TGI: > 100 µM
[9]
  TGI: > 100 µM
[43]
  TGI: 25.3 µM
[44]
  TGI: > 100 µM
[45]
  TGI: 88.3 µM
[10]
  TGI: 55.1 µM
[46]
  TGI: 32 µM
[47]
  TGI: 25.3 µM
[48]
  TGI: 46.3 µM
[49]
  TGI: > 100 µM
[11]
  TGI: > 100 µM
[12]
  TGI: > 100 µM
[50]
  TGI: 75.3 µM
[51]
  TGI: > 100 µM
[52]
  TGI: 12 µM
[53]
  TGI: > 100 µM
[54]
  TGI: 94.3 µM
[55]
  TGI: 33.9 µM
[56]
  TGI: > 100 µM
[57]
  TGI: 19.8 µM
[13]
  TGI: > 100 µM
[58]
  TGI: 33.1 µM

## Clc1ccccc1C(n1cc(Br)cn1)n1cc(Br)cn1
[1]
  TGI: 35.9 µM
[16]
  TGI: 55.2 µM
[17]
  TGI: > 100 µM
[2]
  TGI: 93.1 µM
[19]
  TGI: 54 µM
[20]
  TGI: 56 µM
[21]
  TGI: 53 µM
[24]
  TGI: 42.9 µM
[3]
  TGI: 44.6 µM
[26]
  TGI: 57.9 µM
[28]
  TGI: 29 µM
[5]
  TGI: > 100 µM
[30]
  TGI: 40.8 µM
[32]
  TGI: 31.2 µM
[33]
  TGI: > 100 µM
[34]
  TGI: 36.9 µM
[35]
  TGI: 34.5 µM
[36]
  TGI: 46.9 µM
[6]
  TGI: 39.2 µM
[38]
  TGI: > 100 µM
[39]
  TGI: 28.1 µM
[40]
  TGI: > 100 µM
[42]
  TGI: > 100 µM
[7]
  TGI: 49 µM
[8]
  TGI: 55.1 µM
[9]
  TGI: 46.3 µM
[43]
  TGI: 34.4 µM
[45]
  TGI: 43.1 µM
[46]
  TGI: 45.6 µM
[47]
  TGI: > 100 µM
[48]
  TGI: 23.1 µM
[11]
  TGI: 30.6 µM
[12]
  TGI: > 100 µM
[51]
  TGI: > 100 µM
[52]
  TGI: 92.9 µM
[54]
  TGI: > 100 µM
[55]
  TGI: > 100 µM
[56]
  TGI: 31.7 µM
[13]
  TGI: 32.6 µM
[58]
  TGI: 40.6 µM

## C=CCC(C(=O)OC)C1(C(=O)OC)c2[nH]c3ccccc3c2CCN1Cc1ccccc1 (configuration not stated)
[14]
  TGI: > 100 µM
[1]
  TGI: > 100 µM
[15]
  TGI: > 100 µM
[17]
  TGI: > 100 µM
[2]
  TGI: > 100 µM
[18]
  TGI: > 100 µM
[19]
  TGI: > 100 µM
[20]
  TGI: > 100 µM
[22]
  TGI: > 100 µM
[23]
  TGI: > 100 µM
[24]
  TGI: > 100 µM
[25]
  TGI: > 100 µM
[3]
  TGI: > 100 µM
[26]
  TGI: > 100 µM
[27]
  TGI: 74.6 µM
[28]
  TGI: > 100 µM
[29]
  TGI: > 100 µM
[30]
  TGI: > 100 µM
[31]
  TGI: > 100 µM
[34]
  TGI: > 100 µM
[35]
  TGI: > 100 µM
[36]
  TGI: > 100 µM
[6]
  TGI: > 100 µM
[38]
  TGI: > 100 µM
[40]
  TGI: > 100 µM
[41]
  TGI: > 100 µM
[42]
  TGI: > 100 µM
[7]
  TGI: > 100 µM
[8]
  TGI: > 100 µM
[9]
  TGI: > 100 µM
[43]
  TGI: > 100 µM
[44]
  TGI: > 100 µM
[45]
  TGI: > 100 µM
[10]
  TGI: > 100 µM
[46]
  TGI: > 100 µM
[47]
  TGI: > 100 µM
[48]
  TGI: > 100 µM
[49]
  TGI: > 100 µM
[11]
  TGI: > 100 µM
[12]
  TGI: > 100 µM
[50]
  TGI: > 100 µM
[52]
  TGI: > 100 µM
[53]
  TGI: > 100 µM
[54]
  TGI: > 100 µM
[55]
  TGI: > 100 µM
[57]
  TGI: > 100 µM
[13]
  TGI: > 100 µM

## CCN(CC)CC(O)c1ccc2ccc3ccccc3c2c1 (configuration not stated)
[14]
  TGI: 25.6 µM
[1]
  TGI: 26.3 µM
[15]
  TGI: 31.4 µM
[16]
  TGI: 27.3 µM
[59]
  TGI: 30.5 µM
[17]
  TGI: 26.6 µM
[2]
  TGI: 45.3 µM
[18]
  TGI: 29.9 µM
[60]
  TGI: 33 µM
[22]
  TGI: 29.5 µM
[23]
  TGI: 23 µM
[24]
  TGI: 29.5 µM
[25]
  TGI: 33.2 µM
[3]
  TGI: 30.1 µM
[26]
  TGI: 29.6 µM
[27]
  TGI: 31.3 µM
[61]
  TGI: 41.9 µM
[28]
  TGI: 25.2 µM
[29]
  TGI: 33 µM
[5]
  TGI: 32.5 µM
[30]
  TGI: 29.1 µM
[32]
  TGI: 35.5 µM
[34]
  TGI: 30.9 µM
[36]
  TGI: 34 µM
[62]
  TGI: 28.2 µM
[63]
  TGI: 28.4 µM
[64]
  TGI: 31.3 µM
[65]
  TGI: 31 µM
[6]
  TGI: 32.9 µM
[37]
  TGI: 29.5 µM
[38]
  TGI: 37 µM
[39]
  TGI: 32.7 µM
[40]
  TGI: 31.9 µM
[66]
  TGI: 33.6 µM
[41]
  TGI: 29.1 µM
[42]
  TGI: 35.3 µM
[7]
  TGI: 27.5 µM
[8]
  TGI: 32 µM
[67]
  TGI: 30.1 µM
[9]
  TGI: 38.2 µM
[43]
  TGI: 31.4 µM
[44]
  TGI: 34.7 µM
[45]
  TGI: 28.9 µM
[10]
  TGI: 25.8 µM
[46]
  TGI: 30.9 µM
[47]
  TGI: 34.6 µM
[48]
  TGI: 27.3 µM
[49]
  TGI: 29.5 µM
[11]
  TGI: 32.1 µM
[12]
  TGI: 29.5 µM
[50]
  TGI: 33.5 µM
[52]
  TGI: 24.8 µM
[53]
  TGI: 34.9 µM
[68]
  TGI: 37.7 µM
[54]
  TGI: 29.9 µM
[55]
  TGI: 26 µM
[56]
  TGI: 31.5 µM
[57]
  TGI: 29.1 µM
[13]
  TGI: 24.1 µM
